Converted amounts (≈) assume the structure as drawn. “And” between values parts separate entries of the source, which are not always exact repeats. Equal entries are not always repeated.
Experiments:
S. aureus ATCC 29213 = assay: MIC by twofold serial dilution, S. aureus; format: cell-based; conditions: Staphylococcus aureus, ATCC29213, 24 h, 37 °C, read-out: MIC (Mean ± SE) S. aureus ATCC 29213
Method: (§1) Candida albicans ATCC 10231, Pseudomonas aeruginosa ATCC 27853, and Staphylococcus aureus ATCC 29213 strains were obtained from the American Type Culture Collection (ATCC; Rockville, MD, USA). The subculture and inoculum preparation were performed according to CLSI M27-A3 for C. albicans on yeast extract peptone dextrose (YPD) agar (HiMedia, Mumbai, Maharashtra, India) and RPMI-1640 medium (PanEco, Moscow, Russia) with MOPS (3-(N-morpholino) propanesulfonic acid, >99.5%; PanEco, Moscow, Russia), and M7-A11 for P. aeruginosa and S. aureus on Mueller-Hinton agar (MHA; HiMedia, Mumbai, Maharashtra, India) and Mueller-Hinton broth (MHB; HiMedia, Mumbai, Maharashtra, India). The stock cell concentrations of fungus and bacteria were 1 × 10^6 and 1 × 10^8 cells/mL, respectively. A working suspension of C. albicans (5.0 × 10^2 cells/mL) was prepared by two-step dilution of the broth concentration with the RPMI-1640 medium. Assay suspensions of P. aeruginosa and S. aureus (1.0 × 10^6 cells/mL) were prepared by diluting the concentration with Mueller-Hinton broth (HiMedia, Mumbai, Maharashtra, India). Amphotericin B (Sigma-Aldrich, Burlington, MA, USA) and gentamicin (Sigma-Aldrich, Burlington, MA, USA) were used as secondary pharmaceutical standards.
(§2) The minimum inhibitory concentration (MIC) was determined by the twofold serial dilution method, according to CLSI M27-A3 [33] and M07-A11 [34], in three independent experiments with four replicates each. Amphotericin B was used as a positive control for fungus; gentamicin was used as a positive control for bacteria. Stock solutions except gentamicin were prepared in DMSO at a concentration of 6400 μg/mL. Gentanicin was solubilized in sterile water at a concentration of 1280 μg/mL. Stock solutions of the tested substances were diluted to the final concentrations in the assay medium and 100 μL of each sample was added to the wells of 96-well plates, and then 100 μL of inoculum was added. Rows 11 and 12 were left for the negative control (medium with inoculum without the drug) and sterility control. The plates were incubated for 24 h at 35 °C in the case of C. albicans and at 37 °C in the case of P. aeruginosa and S. aureus. The tested concentration for gentamicin ranged from 0.0625 to 32 μg/mL; for other compounds, it ranged from 0.125 to 64 μg/mL. The MIC value was determined using spectrophotometer. The MIC was taken to be the lowest drug concentration that caused complete inhibition of microorganism growth compared to the control. The final MIC values were reported as the means with standard error (SE). Standard errors for µg/mL values less than 0.01 were excluded; standard errors for µM values less than 0.1 were excluded (Table 3).

[1] = Sulforhodamine B (SRB) cytotoxicity assay; format: cell-based; conditions: human, Huh-7.5 cells
Method: Huh7.5 cells were grown in the DMEM/F12 (2:1) medium supplemented with 10% FBS (BioSera, Cholet, France), 2 mM L-glutamine, 100 U/mL penicillin, and 100 µg/mL streptomycin in the presence of 5% CO2 at 37 °C. Cells were re-seeded every three days at a ratio of 1:3 or 1:5. After an incubation period, cell monolayers were fixed with 10% (w/v) trichloroacetic acid and stained for 30 min by adding 100 µL of 0.057% (w/v) SRB solution to each well, after which the excess dye is removed by washing repeatedly with 1% (v/v) acetic acid. The protein-bound dye is dissolved in 10 mM Tris-base solution with pH 10.5 for OD determination using a Tecan Spark multimode microplate reader via absorbance at 510 nm.

C. albicans ATCC 10231 = assay: MIC by twofold serial dilution, C. albicans; format: cell-based; conditions: Candida albicans, ATCC10231; 24 h, 35 °C; read-out: MIC (Mean ± SE) C. albicans ATCC 10231
Method: as §1, §2

[2] = Water solubility and stability of hydrazones and alginate microgels; format: physicochemical; conditions: preliminary studies
Method: The expected mass loading of microgels was 33% (5.0 mg of alginate + 2.5 mg of a sample). A solution of sodium alginate was prepared at a concentration of 3.0 mg/mL. 1.700 mL of sodium alginate solution and 3.283 mL of distilled water were added to the beaker and an equimolar copper sulfate solution (17.0 μL) was added dropwise and stirred for 30 min. Then, concentrated hydrochloric acid was dissolved in 250 μL of the polymer solution for 20 min while heating to 50 °C until the solid residue was completely dissolved. The resulting solution of I was added dropwise to the Cu^2+–alginate microgel solution and stirred for 24 h; then, the acid was neutralized with a concentrated NaOH aq. solution. The resulting solutions were purified using flow dialysis. Microgels with substances were lyophilized until a fully dry pinkish powder was obtained.

P. aeruginosa ATCC 27853 = assay: MIC by twofold serial dilution, P. aeruginosa; format: cell-based; conditions: Pseudomonas aeruginosa, ATCC27853; 24 h, 37 °C; read-out: MIC (Mean ± SE) P. aeruginosa ATCC 27853
Method: as §1, §2

In the case of `Oc1c(N/N=C/c2ccccc2)ccc2cccnc12` [Compound I, 7-(2-Benzylidenohydrazinyl)-8-hydroxyquinoline], the MIC (S. aureus ATCC 29213) is reported as 52 µg/mL and 198 µM, the CC50 [1] is reported as 59.5 ± 12.5 µM and the MIC (C. albicans ATCC 10231) is reported as 4 µg/mL and 15.2 µM. For the same compound, the solubility [2] was roughly 2300 µg/mL (≈ 8740 µM) and the MIC (P. aeruginosa ATCC 27853) was > 64 µg/mL and > 243 µM.

With `O=[N+]([O-])c1ccc(/C=N/Nc2ccc3cccnc3c2O)cc1` [II, 7-(4-Nitrobenzylidenohydrazinyl)-8-hydroxyquinoline] the MIC (S. aureus ATCC 29213) was 14 ± 1.9 µg/mL (≈ 45.4 µM), the CC50 [1] was 8 ± 0.1 µM and the MIC (C. albicans ATCC 10231) was 13 µM and 4 µg/mL. The MIC (P. aeruginosa ATCC 27853) was > 64 µg/mL and > 208 µM.

For `O=[N+]([O-])c1cccc(/C=N/Nc2ccc3cccnc3c2O)c1` [III, 7-(3-Nitrobenzylidenohydrazinyl)-8-hydroxyquinoline], the MIC (S. aureus ATCC 29213) was 18 ± 4.8 µg/mL (≈ 58.4 µM), the CC50 [1] was 7.1 ± 0.4 µM and the MIC (C. albicans ATCC 10231) was 11.3 µg/mL and 36.8 µM. The MIC (P. aeruginosa ATCC 27853) was > 64 µg/mL and > 208 µM.

For `COc1ccc(/C=N/Nc2ccc3cccnc3c2O)cc1` [IV, 7-(4-Methoxybenzylidenohydrazinyl)-8-hydroxyquinoline], the MIC (S. aureus ATCC 29213) was 64 µg/mL and 218 µM, the CC50 [1] was 40 ± 0.2 µM and the MIC (C. albicans ATCC 10231) was 8 µg/mL and 27.3 µM. For the same compound, the MIC (P. aeruginosa ATCC 27853) was > 64 µg/mL and > 218 µM.

In the case of `Oc1c(N/N=C/c2ccc(Br)c(Br)c2)ccc2cccnc12` [V, 7-(3,4-Dibromobenzylidenohydrazinyl)-8-hydroxyquinoline], the MIC (S. aureus ATCC 29213) is reported as 36.3 ± 10.3 µg/mL (≈ 86.2 µM), the CC50 [1] is reported as 6.9 ± 0.3 µM and the MIC (C. albicans ATCC 10231) is reported as 15.3 µg/mL and 36.3 µM. For the same compound, the MIC (P. aeruginosa ATCC 27853) was > 64 µg/mL and > 152 µM.

With `Oc1c(N/N=C/c2ccc(F)cc2)ccc2cccnc12` [VI, 7-(4-Fluorobenzylidenohydrazinyl)-8-hydroxyquinoline] the MIC (S. aureus ATCC 29213) was ≥ 64 µg/mL and ≥ 228 µM, the CC50 [1] was 7 ± 0.2 µM and the MIC (C. albicans ATCC 10231) was 3.8 µg/mL and 13.6 µM. The MIC (P. aeruginosa ATCC 27853) was > 64 µg/mL and > 228 µM.

Reference: paper PMC12428554, “Anti-HIV and Antimicrobial Activity of 7-Hydrazino-8-hydroxyquinoline-Based Aromatic Hydrazones” (International Journal of Molecular Sciences, 2025)
